TGI and GI50 data for twelve compounds are collected here from PubChem BioAssay (NCI).

Structures are written as SMILES.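 Compound exposure: 48 hours, 5 concentrations, 96-well plates. At the GI50, growth is halved. TGI marks complete inhibition of growth.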 Bounds are passed on as bounds.

Some test systems named below: HOP-92 NSCLC; SK-MEL-28 melanoma; KM12 colon; A549 NSCLC; SK-MEL-5 melanoma; NCI-H23 lung; CCRF-CEM leukemia; SK-MEL-2 melanoma; HCT-15 colon; UACC-257 melanoma.
Test in all cases: NCI tumour cell line growth inhibition, 48 h

Turning to `Cn1c(=O)c2[nH]c(SCCN3CCOCC3)nc2n(C)c1=S`, the TGI in the assay with HOP-92 NSCLC, in the assay on SK-MEL-28 melanoma, with KM12 colon, in the assay with A549 NSCLC, with SK-MEL-5 melanoma and in the assay with NCI-H23 lung was greater than 100 µM in each case. Moreover, the TGI with CCRF-CEM leukemia, with SK-MEL-2 melanoma, in the assay with HCT-15 colon and in the assay on UACC-257 melanoma was greater than 100 µM throughout.
As to `O=C(Nc1ccc(F)cc1F)c1cc(Cl)ccc1O`, the GI50 is 0.232 µM in the assay on HOP-92 NSCLC; 0.754 µM with SK-MEL-28 melanoma; 2.31 µM in the assay with KM12 colon; 1.29 µM in the assay on A549 NSCLC; 0.608 µM in the assay on SK-MEL-5 melanoma; 1.6 µM in the assay with NCI-H23 lung. Moreover, the GI50 with CCRF-CEM leukemia was 3.04 µM; in the assay on SK-MEL-2 melanoma, 1.16 µM; in the assay with HCT-15 colon, 1.54 µM; in the assay with UACC-257 melanoma, 0.397 µM. Moreover, the TGI was determined as 0.942 µM in the assay with HOP-92 NSCLC; 8.69 µM with SK-MEL-28 melanoma; 7.68 µM with KM12 colon; 41 µM in the assay on A549 NSCLC; 2.03 µM in the assay on SK-MEL-5 melanoma; 8.27 µM in the assay on NCI-H23 lung. Further, the TGI in the assay on CCRF-CEM leukemia was determined as 18.1 µM; with SK-MEL-2 melanoma it was 4.93 µM; in the assay on HCT-15 colon, 18 µM; in the assay with UACC-257 melanoma it was 2.68 µM.
On to `CN(C)/C=N\c1ccnc(=O)[nH]1`, for which the TGI with HOP-92 NSCLC, in the assay on SK-MEL-28 melanoma, in the assay with KM12 colon, in the assay on A549 NSCLC, in the assay on SK-MEL-5 melanoma and in the assay with CCRF-CEM leukemia was greater than 100 µM each time. In addition, the TGI with SK-MEL-2 melanoma, with HCT-15 colon and in the assay with UACC-257 melanoma was greater than 100 µM throughout.
Take `O=C(/C=C/c1ccc(O)c(O)c1)NCc1c[nH]c2ccccc12`: the GI50 is greater than 100 µM with HOP-92 NSCLC; 58.3 µM in the assay with SK-MEL-28 melanoma; 66.7 µM in the assay with KM12 colon; greater than 100 µM in the assay with A549 NSCLC; 32.9 µM in the assay with SK-MEL-5 melanoma; 85.8 µM in the assay with NCI-H23 lung. In addition, the GI50 with CCRF-CEM leukemia is 48.4 µM; in the assay with HCT-15 colon, 44.2 µM; with UACC-257 melanoma it was greater than 100 µM. Further, the TGI with HOP-92 NSCLC, in the assay with SK-MEL-28 melanoma, with KM12 colon, in the assay with A549 NSCLC, in the assay with SK-MEL-5 melanoma and with NCI-H23 lung was greater than 100 µM throughout. The TGI in the assay with CCRF-CEM leukemia, with HCT-15 colon and in the assay with UACC-257 melanoma was greater than 100 µM each time.
Take `C[Si](C)(c1ccc(C(=O)O)cc1)c1ccc(C(=O)O)cc1`: the TGI in the assay on HOP-92 NSCLC, with SK-MEL-28 melanoma, in the assay on KM12 colon, with A549 NSCLC, in the assay with SK-MEL-5 melanoma and with NCI-H23 lung was greater than 100 µM each time. Besides, the TGI in the assay on CCRF-CEM leukemia, in the assay on SK-MEL-2 melanoma, in the assay on HCT-15 colon and in the assay with UACC-257 melanoma was greater than 100 µM throughout.
For the compound `N#C/C(=C\c1cccc(O)c1O)C(N)=O`, the TGI with HOP-92 NSCLC was greater than 100 µM; with SK-MEL-28 melanoma it was greater than 100 µM; in the assay on KM12 colon, greater than 100 µM; in the assay on A549 NSCLC it was greater than 100 µM; in the assay on NCI-H23 lung, greater than 100 µM; in the assay on CCRF-CEM leukemia it was 45.3 µM. In addition, the TGI in the assay on SK-MEL-2 melanoma, in the assay with HCT-15 colon and in the assay on UACC-257 melanoma was greater than 100 µM each time.
Take `Cc1c(C(=O)/C=C/C=C/c2ccccc2)[n+](=O)c2ccccc2n1[O-]`: the TGI with HOP-92 NSCLC was found to be 89.1 µM; in the assay on SK-MEL-28 melanoma, 54.6 µM; in the assay with KM12 colon it was 43.7 µM; in the assay on A549 NSCLC it was 82.3 µM; in the assay on SK-MEL-5 melanoma, 44.4 µM; in the assay on NCI-H23 lung, 51.4 µM. Moreover, the TGI was greater than 100 µM in the assay with CCRF-CEM leukemia, 91.3 µM with SK-MEL-2 melanoma, 36.9 µM with HCT-15 colon and 84.6 µM with UACC-257 melanoma.
In the case of `Cl/C(N=Nc1ccccc1)=N/Nc1ccccc1`, the TGI with HOP-92 NSCLC, in the assay with SK-MEL-28 melanoma, in the assay on KM12 colon, in the assay on A549 NSCLC, with NCI-H23 lung and with CCRF-CEM leukemia was greater than 100 µM each time. The TGI with SK-MEL-2 melanoma and in the assay on UACC-257 melanoma was greater than 100 µM in each case.
Regarding `CCc1cccc(C)c1N1C(=O)C(=O)C(c2nc3ccccc3o2)C(=O)C1=O`, the TGI with HOP-92 NSCLC, in the assay on SK-MEL-28 melanoma, in the assay on KM12 colon, with A549 NSCLC, with SK-MEL-5 melanoma and in the assay with NCI-H23 lung was greater than 100 µM throughout. The TGI with CCRF-CEM leukemia, in the assay on SK-MEL-2 melanoma, with HCT-15 colon and in the assay on UACC-257 melanoma was greater than 100 µM throughout.
For `O=[N+]([O-])c1nccn1CC(O)CN1CCCCC1` (centres undefined), the TGI in the assay with HOP-92 NSCLC, with SK-MEL-28 melanoma, with KM12 colon, in the assay on A549 NSCLC, in the assay with SK-MEL-5 melanoma and in the assay with NCI-H23 lung was greater than 100 µM each time. Further, the TGI with CCRF-CEM leukemia, in the assay with SK-MEL-2 melanoma, with HCT-15 colon and in the assay with UACC-257 melanoma was greater than 100 µM in each case.
As to `Cc1c2c(cc3c1C(=O)C(=O)C1=C3OC[C@@H]1C)C(C)(C)CCC2`, the TGI in the assay with HOP-92 NSCLC is 61.2 µM; with SK-MEL-28 melanoma, 27.3 µM; in the assay with KM12 colon, 24.7 µM; with A549 NSCLC it was 26.8 µM; in the assay on SK-MEL-5 melanoma it was 26.1 µM; in the assay on NCI-H23 lung it was 28.4 µM. The TGI in the assay on CCRF-CEM leukemia worked out at 42 µM; in the assay on SK-MEL-2 melanoma, 21.2 µM; with HCT-15 colon, 27.6 µM; in the assay on UACC-257 melanoma, 28.4 µM.
For the compound `CCN1CCN(c2cc(C)nc(N(CCCNc3ccnc4cc(Cl)ccc34)Cc3ccc4c(c3)OCO4)n2)CC1`, the GI50 in the assay with HOP-92 NSCLC is 1.61 µM; in the assay on SK-MEL-28 melanoma it was 1.84 µM; in the assay on KM12 colon it was 4.14 µM; in the assay with A549 NSCLC it was 3.67 µM; in the assay on SK-MEL-5 melanoma, 1.7 µM; in the assay with NCI-H23 lung, 7.4 µM. The GI50 was 2.38 µM with CCRF-CEM leukemia, 2.14 µM in the assay on SK-MEL-2 melanoma, 2.24 µM in the assay with HCT-15 colon and 1.72 µM in the assay with UACC-257 melanoma. Also, the TGI is 4.67 µM with HOP-92 NSCLC; 3.46 µM in the assay with SK-MEL-28 melanoma; greater than 100 µM with KM12 colon; greater than 100 µM in the assay with A549 NSCLC; 3.13 µM in the assay with SK-MEL-5 melanoma; greater than 100 µM in the assay on NCI-H23 lung. The TGI was 7.43 µM in the assay with CCRF-CEM leukemia, 4.74 µM with SK-MEL-2 melanoma, 8.42 µM in the assay with HCT-15 colon and 3.23 µM in the assay on UACC-257 melanoma.
